Experimental data taken from US20120122727A1, “IN VITRO METHOD FOR PREDICTING WHETHER A COMPOUND IS GENOTOXIC IN VIVO” (priority 2009, published 2012).

Test system: primary mouse hepatocytes
Assay: Gene expression (Affymetrix Mouse Genome 430 2.0) in primary mouse hepatocytes, true vs false GTX, 24 h and 48 h
Conditions: log2, corrected for vehicle control

O=c1c(O)c(-c2ccc(O)c(O)c2)oc2cc(O)cc(O)c12 [Q, Quercetin]
Gene expression data AF000969 (Cadps2) (24 h average): −0.5753
Gene expression data AF022072 (Grb10) (24 h average): 0.3385
Gene expression data AF065917 (Lif) (24 h average): −0.1024
Gene expression data AF204959 (Cyp3a25 /// LOC622249) (24 h average): −1.232
Gene expression data AF297615 (Ggta1) (24 h average): 0.8047
Gene expression data AI594683 (Dmn) (24 h average): −0.2712
Gene expression data AI596632 (Ptprg /// LOC632664) (24 h average): −0.456
Gene expression data AI987929 (Ndrg1) (24 h average): 1.663
Gene expression data AK004419 (Fbxl17) (24 h average): −0.01537
Gene expression data AK005731 (1700007K13Rik) (24 h average): 0.6919
Gene expression data AK007766 (1810044A24Rik) (24 h average): −0.04463
Gene expression data AK007854 (1810053B23Rik) (24 h average): −0.9336
Gene expression data AK009736 (Gpr137b /// LOC664862 /// LOC673335) (24 h average): 1.171
Gene expression data AK010447 (Smyd3) (24 h average): 0.0701
Gene expression data AK014608 (4632434l11Rik) (24 h average): 0.03273
Gene expression data AK019979 (2610528E23Rik) (24 h average): 0.2502
Gene expression data AV095209 (Mthfd1l) (24 h average): 0.8331
Gene expression data AV141095 (1110033M05Rik) (24 h average): 0.2855
Gene expression data AV173571 (1700106N22Rik) (24 h average): −0.2484
Gene expression data AV219418 (Ldhb) (24 h average): −0.1808
Gene expression data AV223474 (Zdhhc14) (24 h average): −0.2496
Gene expression data AV298304 (Homez) (24 h average): 0.2496
Gene expression data AV327248 (Zfp365 /// LOC674611) (24 h average): 0.3116
Gene expression data AV377066 (9130221J18Rik) (24 h average): −0.4922
Gene expression data AW240761 (Tbc1d5) (24 h average): −0.157
Gene expression data AW543460 (Pard3) (24 h average): 0.2437
Gene expression data AW543723 (24 h average): 0.4193
Gene expression data AW986246 (Maoa) (24 h average): 1.388
Gene expression data BB027848 (4732466D17Rik) (24 h average): −1.304
Gene expression data BB043558 (9230114K14Rik) (24 h average): 0.3431
Gene expression data BB275142 (AW456874) (24 h average): −0.5004
Gene expression data BB308836 (Ppm1l) (24 h average): 0.1666
Gene expression data BB318221 (Zdhhc14) (24 h average): −0.1479
Gene expression data BB463610 (4632434l11Rik) (24 h average): −0.1026
Gene expression data BB526605 (Mipol1) (24 h average): 0.09617
Gene expression data BB770528 (Rai2) (24 h average): −0.3109
Gene expression data BB821363 (Scfd2) (24 h average): −0.2338
Gene expression data BC004827 (Psat1) (24 h average): 0.9258
Gene expression data BC008626 (Icam1) (24 h average): −0.3725
Gene expression data BC010462 (BC010462) (24 h average): −0.5852
Gene expression data BC012247 (Dcxr) (24 h average): −0.2845
Gene expression data BC012260 (Psmf1) (24 h average): −0.1689
Gene expression data BC015270 (Hist2h3c2) (24 h average): −0.3924
Gene expression data BC016073 (Cdkal1) (24 h average): 0.1993
Gene expression data BC016265 (Ube2e2) (24 h average): 0.1622
Gene expression data BC019882 (Acaa1b) (24 h average): 0.7124
Gene expression data BC025501 (Aaas) (24 h average): 0.4589
Gene expression data BC025837 (Sbk1) (24 h average): −0.3383
Gene expression data BC025915 (Cova1) (24 h average): 0.3176
Gene expression data BC026422 (Tgm1) (24 h average): 0.28
Gene expression data BF719766 (Thyn1) (24 h average): 0.1596
Gene expression data BG065754 (Ccng1) (24 h average): 0.4829
Gene expression data BG066903 (Kif16b) (24 h average): 0.2506
Gene expression data BG069873 (Gnb1l) (24 h average): 0.007867
Gene expression data BG070887 (Gtdc1) (24 h average): −0.2209
Gene expression data BG076151 (Ppm1d) (24 h average): −0.1367
Gene expression data BG261907 (Large) (24 h average): 0.3964
Gene expression data BI651416 (Cdc42bpg) (24 h average): 0.2653
Gene expression data BI660702 (Ell3) (24 h average): −0.05897
Gene expression data BM198879 (Ercc5) (24 h average): 0.1402
Gene expression data BM230508 (A030007D23Rik) (24 h average): 0.3449
Gene expression data NM_007987 (Fas) (24 h average): 0.1744
Gene expression data NM_008522 (Ltf) (24 h average): −0.09593
Gene expression data NM_008576 (Abcc1) (24 h average): 1.2925
Gene expression data NM_011176 (St14) (24 h average): 0.5914
Gene expression data NM_011316 (Saa4) (24 h average): −0.1314
Gene expression data NM_012006 (Acot1) (24 h average): 1.0762
Gene expression data NM_013866 (Zfp385) (24 h average): 0.06543
Gene expression data NM_018770 (Igsf4a) (24 h average): 0.4689
Gene expression data NM_021451 (Pmaip1) (24 h average): −0.611
Gene expression data NM_025770 (Atg10) (24 h average): 0.2663
Gene expression data NM_028803 (Gbe1) (24 h average): −0.2509
Gene expression data NM_030697 (Ankrd47) (24 h average): 1.3142
Gene expression data NM_053168 (Trim11) (24 h average): −0.02257
Gene expression data NM_134188 (Acot2) (24 h average): 0.1275
Gene expression data Y15910 (Diap2) (24 h average): −0.31
Gene expression AA561726 average (48 h): 0.3473
Gene expression AF000969 average (48 h): 0.6762
Gene expression AF022072 average (48 h): 0.7799
Gene expression AF033112 average (48 h): 0.02593
Gene expression AF055573 average (48 h): 0.0039
Gene expression AF069954 average (48 h): −0.168
Gene expression AF297615 average (48 h): −0.02943
Gene expression AF335325 average (48 h): −0.3547
Gene expression AI594683 average (48 h): −0.1952
Gene expression AI747296 average (48 h): −0.1572
Gene expression AK005731 average (48 h): −0.8953
Gene expression AK007854 average (48 h): 1.0645
Gene expression AK010447 average (48 h): −0.1277
Gene expression AK010738 average (48 h): 0.03457
Gene expression AK014608 average (48 h): −0.3181
Gene expression AK017734 average (48 h): −0.2231
Gene expression AK018383 average (48 h): −0.06343
Gene expression AK019979 average (48 h): −0.6456
Gene expression AV095209 average (48 h): 0.0573
Gene expression AV141095 average (48 h): −0.03573
Gene expression AV173869 average (48 h): −0.3593
Gene expression AV216768 average (48 h): 0.4269
Gene expression AV219418 average (48 h): 0.7223
Gene expression AV221299 average (48 h): 0.3941
Gene expression AV246296 average (48 h): −0.449
Gene expression AV251625 average (48 h): −0.2405
Gene expression AV254764 average (48 h): −0.09113
Gene expression AV327248 average (48 h): −0.1842
Gene expression BB009155 average (48 h): −0.6448
Gene expression BB027848 average (48 h): −0.5634
Gene expression BB043558 average (48 h): 0.03817
Gene expression BB046347 average (48 h): 0.3747
Gene expression BB140436 average (48 h): 0.455
Gene expression BB204486 average (48 h): 0.3211
Gene expression BB223872 average (48 h): −0.2409
Gene expression BB246912 average (48 h): 0.03943
Gene expression BB275142 average (48 h): −0.5307
Gene expression BB458460 average (48 h): −0.2505
Gene expression BB463610 average (48 h): −0.254
Gene expression BB730977 average (48 h): 0.127
Gene expression BB743970 average (48 h): −0.1543
Gene expression BB770528 average (48 h): −0.5238
Gene expression BB781615 average (48 h): −0.3025
Gene expression BC003284 average (48 h): −0.3991
Gene expression BC004827 average (48 h): 0.3832
Gene expression BC005552 average (48 h): 0.365
Gene expression BC006713 average (48 h): 0.1419
Gene expression BC010318 average (48 h): 0.2274
Gene expression BC012247 average (48 h): 0.1853
Gene expression BC012955 average (48 h): 0.25
Gene expression BC013893 average (48 h): −0.5246
Gene expression BC017615 average (48 h): −0.2786
Gene expression BC019379 average (48 h): −0.03313
Gene expression BC019882 average (48 h): −0.02177
Gene expression BC021352 average (48 h): −1.143
Gene expression BC022148 average (48 h): 0.2323
Gene expression BC025169 average (48 h): 0.176
Gene expression BC026131 average (48 h): 0.3886
Gene expression BC027026 average (48 h): 0.3636
Gene expression BC027121 average (48 h): 0.003767
Gene expression BC027185 average (48 h): −0.4317
Gene expression BE956581 average (48 h): 0.1063
Gene expression BF719766 average (48 h): 0.1683
Gene expression BG065754 average (48 h): −0.2692
Gene expression BG066491 average (48 h): −0.6278
Gene expression BG076151 average (48 h): −0.7006
Gene expression BG076333 average (48 h): 0.2569
Gene expression BG797099 average (48 h): −0.3185
Gene expression BG967046 average (48 h): −0.2263
Gene expression BI651416 average (48 h): −0.4982
Gene expression BI966443 average (48 h): 0.1621
Gene expression BM198879 average (48 h): −0.1382
Gene expression BM200015 average (48 h): −0.2469
Gene expression BM230508 average (48 h): −0.6707
Gene expression BM936480 average (48 h): 0.1682
Gene expression BQ174991 average (48 h): 0.5432
Gene expression L21027 average (48 h): 0.4391
Gene expression NM_007556 average (48 h): 0.4673
Gene expression NM_007980 average (48 h): 1.051
Gene expression NM_007987 average (48 h): −0.07343
Gene expression NM_008522 average (48 h): −0.03917
Gene expression NM_008935 average (48 h): 0.5881
Gene expression NM_009897 average (48 h): 0.2468
Gene expression NM_011075 average (48 h): −0.8714
Gene expression NM_011176 average (48 h): −0.3579
Gene expression NM_011316 average (48 h): −0.2485
Gene expression NM_012006 average (48 h): 0.7373
Gene expression NM_013642 average (48 h): 0.7153
Gene expression NM_013738 average (48 h): −0.4434
Gene expression NM_013929 average (48 h): 0.09257
Gene expression NM_018881 average (48 h): 0.2667
Gene expression NM_019738 average (48 h): −0.7691
Gene expression NM_030697 average (48 h): 0.08597
Gene expression NM_053122 average (48 h): −0.1158
Gene expression NM_134147 average (48 h): −0.2048
Gene expression NM_134188 average (48 h): 0.5773
Gene expression X62701 average (48 h): 0.8426
